Measured values from patent publication US11247972B2, “Compositions and methods for treating toxoplasmosis, cryptosporidiosis, and other apicomplexan protozoan related diseases” (University of Washington through its Center for …, priority 2010, dated 2022).

Experiments:
PfCDPK1 = PfCDPK1 (Plasmodium falciparum (isolate 3D7), UniProt P62344); test: biochemical; conditions: read-out: PfCDPK1 (% inhibition @ 3 uM)
PfCDPK4 = PfCDPK4 (Plasmodium falciparum (isolate 3D7), UniProt Q8IBS5); test: biochemical; conditions: read-out: PfCDPK4 (% inhibition @ 3 uM)

Compound | inhibition at 3 µM (PfCDPK1) [%] | inhibition at 3 µM (PfCDPK4) [%]
CC(C)CC(=O)Nc1ccc(-c2nn(C(C)(C)C)c3ncnc(N)c23)cc1 [Compound 62, N-(4-(4-amino-1-tert-butyl-1H-pyrazolo[3,4-d]pyrimidin-3-yl)phenyl)-3-methylbutanamide] | 102 | 95
CC(C)(C)n1nc(-c2ccc3oc(-c4ccccc4)nc3c2)c2c(N)ncnc21 [Compound 131] | 100 | 38
CC(C)c1nc(-c2cnc3ccccc3c2)c2c(N)nccn12 [Compound 9, 3-isopropyl-1-(quinolin-3-yl)imidazo[1,5-a]pyrazin-8-amine] | 76 | 88
CC(C)(C)C(=O)Nc1ccc(-c2nn(C(C)(C)C)c3ncnc(N)c23)cc1 [Compound 60, N-(4-(4-amino-1-tert-butyl-1H-pyrazolo[3,4-d]pyrimidin-3-yl)phenyl)pivalamide] | 98 | 85
Nc1ncnc2c1c(-c1ccc3cc(OCc4ccc(Cl)cc4)ccc3c1)nn2CC1CCNCC1 [Compound 39, 3-(6-(4-chlorobenzyloxy)naphthalen-2-yl)-1-(piperidin-4-ylmethyl)-1H-pyrazolo[3,4-d]pyrimidin-4-amine] | 102 | 98
CCC(=O)Nc1ccc(-c2nn(C(C)(C)C)c3ncnc(N)c23)cc1 [Compound 67, N-(4-(4-amino-1-tert-butyl-1H-pyrazolo[3,4-d]pyrimidin-3-yl)phenyl)propionamide] | 96 | 49
CC(C)COc1ccc2cc(-c3nn(C(C)C)c4ncnc(N)c34)ccc2c1 [Compound 43, 3-(6-isobutoxynaphthalen-2-yl)-1-isopropyl-1H-pyrazolo[3,4-d]pyrimidin-4-amine] | 100 | 78
CC(C)n1nc(-c2ccc3cc(OCc4ccc(Cl)cc4)ccc3c2)c2c(N)ncnc21 [Compound 56, 3-(6-(4-chlorobenzyloxy)naphthalen-2-yl)-1-isopropyl-1H-pyrazolo[3,4-d]pyrimidin-4-amine] | 93 | 73
O=C(NCCC1CCNCC1)Nc1nc2ccc(C(=O)c3ccccc3)cc2[nH]1 [Compound 126] | 76 | 65
CS(=O)(=O)N1CCC(CCn2nc(Cc3cccc4ccccc34)c3c(N)ncnc32)CC1 [Compound 5r, 1-(2-(1-(methylsulfonyl)piperidin-4-yl)ethyl)-3-(naphthalen-1-ylmethyl)-1H-pyrazolo[3,4-d]pyrimidin-4-amine] | 55 | 22
Cn1ccc2cc(-c3nc(C(C)(C)C)n4ccnc(N)c34)ccc21 [Compound 70, 3-tert-butyl-1-(1-methyl-1H-indol-5-yl)imidazo[1,5-a]pyrazin-8-amine] | 100 | 96
C=CCOc1ccc2cc(-c3nn(C(C)C)c4ncnc(N)c34)ccc2c1 [Compound 41, 3-(6-(allyloxy)naphthalen-2-yl)-1-isopropyl-1H-pyrazolo[3,4-d]pyrimidin-4-amine] | 101 | 98
Nc1ncnc2c1c(-c1ccc3oc(-c4ccccc4)nc3c1)nn2CC1CCNCC1 [Compound 120] | 101 | 90
Nc1ncnc2c1c(-c1ccc(-c3ccccc3)cc1)nn2CC1CCNCC1 [Compound 100] | 101 | 68
CC(C)(C)n1nc(-c2ccccc2)c2c(N)ncnc21 [Compound 140] | 98 | 90
CC(C)n1nc(-c2ccc3cc(OCc4ccc(C(C)(C)C)cc4)ccc3c2)c2c(N)ncnc21 [Compound 54, 3-(6-(4-tert-butylbenzyloxy)naphthalen-2-yl)-1-isopropyl-1H-pyrazolo[3,4-d]pyrimidin-4-amine] | 101 | 77
Cc1ccc(C(F)(F)F)cc1COc1ccc2cc(-c3nn(C(C)C)c4ncnc(N)c34)ccc2c1 [Compound 50, 1-isopropyl-3-(6-(2-methyl-5-(trifluoromethyl)benzyloxy)naphthalen-2-yl)-1H-pyrazolo[3,4-d]pyrimidin-4-amine] | 83 | 26
CC(C)n1nc(-c2ccc3c(c2)OCO3)c2c(N)ncnc21 [Compound 7u, 3-(benzo[d][1,3]dioxol-5-yl)-1-isopropyl-1H-pyrazolo[3,4-d]pyrimidin-4-amine] | 94 | 77
NCCCC(=O)Nc1nc2ccc(C(=O)c3ccccc3)cc2[nH]1 [Compound 103] | 75 | 58
Nc1ncnc2c1c(Cc1cccc3ccccc13)nn2CC1CCCCC1 [Compound 17, 1-(cyclohexylmethyl)-3-(naphthalen-1-ylmethyl)-1H-pyrazolo[3,4-d]pyrimidin-4-amine] | 44 | 5
CC(C)n1nc(-c2ccc3cc(OCc4ccncc4)ccc3c2)c2c(N)ncnc21 [Compound 55, 1-isopropyl-3-(6-(pyridin-4-ylmethoxy)naphthalen-2-yl)-1H-pyrazolo[3,4-d]pyrimidin-4-amine] | 100 | 94
CC(C)Oc1ccc2cc(-c3nn(C(C)C)c4ncnc(N)c34)ccc2c1 [Compound 11, 3-(6-isopropoxynaphthalen-2-yl)-1-isopropyl-1H-pyrazolo[3,4-d]pyrimidin-4-amine] | 93 | 87

Compound | inhibition at 3 µM (PfCDPK1) [%] | inhibition at 3 µM (PfCDPK4) [%]
CCOc1ccc2cc(-c3nn(C(C)(C)C)c4ncnc(N)c34)ccc2c1 [Compound 137] | 95 | 95
Nc1ncnc2c1c(-c1ccc(-c3nn(CC4CCNCC4)c4ncnc(N)c34)cc1)nn2CC1CCNCC1 [Compound 101] | 79 | 14
CCN1CCC(CCn2nc(Cc3cccc4ccccc34)c3c(N)ncnc32)CC1 [Compound 5o, 1-(2-(1-ethylpiperidin-4-yl)ethyl)-3-(naphthalen-1-ylmethyl)-1H-pyrazolo[3,4-d]pyrimidin-4-amine] | 71 | 37
COc1ccc(-c2nn(C(C)C)c3ncnc(N)c23)cc1OC(C)C [Compound 23, 3-(3-isopropoxy-4-methoxyphenyl)-1-isopropyl-1H-pyrazolo[3,4-d]pyrimidin-4-amine] | 75 | 11
Nc1ncnc2c1c(I)nn2CC1CCNCC1 [Compound 98] | 85 | 9
N[C@@H](Cc1c[nH]cn1)C(=O)Nc1nc2ccc(C(=O)c3ccccc3)cc2[nH]1 [Compound 111] | 63 | 41
CC(C)n1nc(-c2ccc3cc(OC(=O)c4cccc(Cl)c4)ccc3c2)c2c(N)ncnc21 [Compound 85] | 99 | 72
CC(C)(C)n1nc(-c2ccc(NC(=O)C3CCCCC3)cc2)c2c(N)ncnc21 [Compound 64, N-(4-(4-amino-1-tert-butyl-1H-pyrazolo[3,4-d]pyrimidin-3-yl)phenyl)cyclohexanecarboxamide] | 101 | 66
CC(C)COc1ccc2cc(-c3nn(C(C)(C)C)c4ncnc(N)c34)ccc2c1 [Compound 130] | 95 | 47
Nc1ncnc2c1c(Cc1cccc3ccccc13)nn2CCC1CCNCC1 [Compound 5i, 3-(naphthalen-1-ylmethyl)-1-(2-(piperidin-4-yl)ethyl)-1H-pyrazolo[3,4-d]pyrimidin-4-amine] | 58 | 80
O=C(CCC1CCNCC1)Nc1nc2ccc(C(=O)c3ccccc3)cc2[nH]1 [Compound 117] | 71 | 74
Nc1ncnc2c1c(-c1ccc3nccnc3c1)nn2CC1CCNCC1 [Compound 122] | 97 | 32
CC(C)(C)c1nc(-c2cnc3ccccc3c2)c2c(N)nccn12 [Compound 72, 3-tert-butyl-1-(quinolin-3-yl)imidazo[1,5-a]pyrazin-8-amine] | 94 | 91
COc1ccc2cc(-c3nn(C(C)(C)C)c4ncnc(N)c34)ccc2c1 [Compound 135] | 96 | 97
COc1ccc2cc(-c3nc(C(C)(C)C)n4ccnc(N)c34)ccc2c1 [Compound 71, 3-tert-butyl-1-(6-methoxynaphthalen-2-yl)imidazo[1,5-a]pyrazin-8-amine] | 101 | 98
CC(C)n1nc(-c2ccc3cc(OCc4cc(F)cc(Cl)c4)ccc3c2)c2c(N)ncnc21 [Compound 52, 3-(6-(3-chloro-5-fluorobenzyloxy)naphthalen-2-yl)-1-isopropyl-1H-pyrazolo[3,4-d]pyrimidin-4-amine] | 93 | 62
CS(=O)(=O)N1CCC(Cn2nc(Cc3cccc4ccccc34)c3c(N)ncnc32)CC1 [Compound 5q, 1-((1-(methylsulfonyl)piperidin-4-yl)methyl)-3-(naphthalen-1-ylmethyl)-1H-pyrazolo[3,4-d]pyrimidin-4-amine] | 78 | 15
CC(C)COc1ccc2cc(-c3nn(CC4CCN(C)CC4)c4ncnc(N)c34)ccc2c1 [Compound 124] | 98 | 93
CCOc1ccc2cc(-c3nc(C(C)C)n4ccnc(N)c34)ccc2c1 [Compound 10, 1-(6-ethoxynaphthalen-2-yl)-3-isopropylimidazo[1,5-a]pyrazin-8-amine] | 93 | 94
CC(C)n1nc(Cc2cccc3ccccc23)c2c(N)ncnc21 [Compound 3, 1-isopropyl-3-(naphthalen-1-ylmethyl)-1H-pyrazolo[3,4-d]pyrimidin-4-amine] | 78 | 76
Nc1ncnc2c1c(Cc1cccc3ccccc13)nn2C1CCNCC1 [Compound 5g, 3-(naphthalen-1-ylmethyl)-1-(piperidin-4-yl)-1H-pyrazolo[3,4-d]pyrimidin-4-amine] | 56 | 75
